Measurements published in patent US8716350B2, “Compositions and methods for the treatment of somatosensory disorders” (Algynomics Inc., priority 2010, dated 2014).
“Also recorded” adds a separate entry of the source. Where two headings read alike, the source gives them in different places.

Assays:
formalin-induced pain = experiment: Formalin test (5% formalin, intraplantar), Example 6; type: in vivo, CD-1 (ICR:Crl) mice; details: 95% confidence interval in parentheses; for ED50: Mus musculus
hind paw formalin test = experiment: Hind paw formalin test (2.5% formaldehyde), Example 2; type: in vivo, mice; details: for late phase, C-fiber mediated responses (paw licking): late/tonic phase, last 50 minutes
thermal thresholds = experiment: Radiant heat paw-withdrawal test (acute nociception); type: in vivo, CD-1 (ICR:Crl) mice; details: high dose; 20 min post-injection
Description: All behavioral experiments were performed on naive, adult (6-12 weeks of age) CD-1 (ICR:Crl) mice of both sexes that were bred in-house from breeders obtained from Charles River (Boucherville, QC). All mice were housed with their same-sex littermates (two to four animals per cage) in standard shoebox cages, maintained in a temperature-controlled (20±1° C.) environment (14/10 h light/dark cycle), and fed (Harlan Teklad 8604) and watered ad libitum. Mice were placed on glass floor within small Plexiglas cubicles as described above, and a focused high-intensity projector lamp beam was directed from below onto the mid-plantar surface of the hind paw (Hargreaves et al., 1988). The commercial device (IITC Model 336) was set to 20% active intensity. Latency to withdraw from the stimulus was measured to the nearest 0.1 s. Baseline measurements consisted of testing both hind paws twice on three separate occasions separated by at least 30 min. Following drug administration both hind paws were only tested once at the indicated time point.

mechanical thresholds = experiment: Von Frey test (acute nociception); type: in vivo, CD-1 (ICR:Crl) mice; details: 10, 30, 60 mg/kg
Description: (§1) All behavioral experiments were performed on naive, adult (6-12 weeks of age) CD-1 (ICR:Crl) mice of both sexes that were bred in-house from breeders obtained from Charles River (Boucherville, QC). All mice were housed with their same-sex littermates (two to four animals per cage) in standard shoebox cages, maintained in a temperature-controlled (20±1° C.) environment (14/10 h light/dark cycle), and fed (Harlan Teklad 8604) and watered ad libitum. The up-down method of Dixon (1965) was used. Mice were placed on a perforated metal floor (with 5-mm diameter holes placed 7 mm apart) within small Plexiglas cubicles (9×5×5 cm high), and a set of eight calibrated von Frey fibers (Stoelting Touch Test Sensory Evaluator Kit #2 to #9; ranging from ≈0.015 g to ≈1.3 g of force) were applied to the plantar surface of the hind paw until the fibers bowed and then held for 3 s. The threshold force required to elicit withdrawal of the paw (median 50% withdrawal) was determined twice on each hind paw (and averaged) for all baseline measurements (except for the spared nerve injury experiments), with sequential measurements separated by at least 20 min. Following drug administration, one measurement per hind paw was taken at the indicated time point.

[1] = system: λ-carrageenan thermal and mechanical allodynia; experiment: Carrageenan hyperalgesia (radiant heat and von Frey); type: in vivo, CD-1 (ICR:Crl) mice
Description: as §1, with “point. Mice were placed on glass floor within small Plexiglas cubicles as described above, and a focused high-intensity projector lamp beam was directed from below onto the mid-plantar surface of the hind paw (Hargreaves et al., 1988). The commercial device (IITC Model 336) was set to 20% active intensity. Latency to withdraw from the stimulus was measured to the nearest 0.1 s. Baseline measurements consisted of testing both hind paws twice on three separate occasions separated by at least 30 min. Following drug administration both hind paws were only tested once at the indicated time point. λ-Carrageenan (2%; 20 mg/ml; Sigma) was suspended by sonication in saline, and injected subcutaneously in a volume of 20 μl into the left plantar hindpaw using a 100 μL1 microsyringe with a 30-gauge needle. Mice were tested for thermal and mechanical sensitivity of both hind paws using the radiant heat paw withdrawal and von Frey tests before and 3 h post carrageenan injection. All drugs were injected immediately following the test for carrageenan hyperalgesia at the 3 h time point, and post-drug measurements were taken at 20, 40 and 60 min.” for “point.”

[2] = system: mechanical allodynia evoked by spared nerve injury; experiment: Spared nerve injury, von Frey test; type: in vivo, CD-1 (ICR:Crl) mice; details: 60 mg/kg; 7 days postoperatively
Description: as §1, with “point. […]” for “point.”

rotarod performance = details: for ataxia on the rotarod test (in words): 60 mg/kg, 20-80 min after injection; for ED50 for maximal ataxia: 60 min following drug administration, interval in parentheses
in vivo = details: mouse
ADRB3 = target: T1, ADRB3 (Homo sapiens, UniProt P13945); type: cell-based; details: cells transfected with ADRB3
T1 construct: expressed in transfected cells; host or cells: HEK-293 co-expressing GloSensor-22F
T1 sequence (P13945 whole entry, species assumed): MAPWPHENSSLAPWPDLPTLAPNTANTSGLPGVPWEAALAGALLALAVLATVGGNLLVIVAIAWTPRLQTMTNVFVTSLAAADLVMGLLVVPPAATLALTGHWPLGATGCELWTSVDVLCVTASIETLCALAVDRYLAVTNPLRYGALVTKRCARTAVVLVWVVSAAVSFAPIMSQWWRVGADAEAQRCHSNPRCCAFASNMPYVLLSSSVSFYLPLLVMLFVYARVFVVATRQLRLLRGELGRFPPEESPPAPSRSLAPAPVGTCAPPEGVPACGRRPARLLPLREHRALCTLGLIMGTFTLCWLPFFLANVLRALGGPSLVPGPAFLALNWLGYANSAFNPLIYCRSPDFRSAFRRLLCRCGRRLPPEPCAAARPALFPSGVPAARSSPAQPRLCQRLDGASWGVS

ADRB1 = ADRB1 (Homo sapiens, UniProt P08588); details: cells transfected with ADRB1
Chain of ADRB1 (P08588 whole entry, species assumed): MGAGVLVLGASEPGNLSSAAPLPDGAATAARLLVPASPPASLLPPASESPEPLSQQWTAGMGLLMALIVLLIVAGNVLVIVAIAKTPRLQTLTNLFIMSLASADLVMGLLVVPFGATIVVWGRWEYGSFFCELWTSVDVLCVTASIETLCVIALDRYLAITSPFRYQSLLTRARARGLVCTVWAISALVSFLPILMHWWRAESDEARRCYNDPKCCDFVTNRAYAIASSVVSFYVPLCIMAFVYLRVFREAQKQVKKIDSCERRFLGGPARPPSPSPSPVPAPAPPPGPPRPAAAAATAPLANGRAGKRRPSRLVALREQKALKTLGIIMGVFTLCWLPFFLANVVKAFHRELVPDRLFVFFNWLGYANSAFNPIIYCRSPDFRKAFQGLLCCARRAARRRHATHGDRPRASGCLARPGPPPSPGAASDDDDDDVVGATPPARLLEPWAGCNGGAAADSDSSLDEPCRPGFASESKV

ADRB2 = target: T2, ADRB2 (Homo sapiens, UniProt P07550); experiment: GloSensor cAMP-sensitive luciferase reporter assay, HEK-293 cells transfected with ADRB2; type: cell-based
T2 construct: expressed in transfected cells; host or cells: HEK-293 co-expressing GloSensor-22F

[3] = system: cells transfected with only Sport6 vector without inserts; experiment: GloSensor cAMP assay, cells transfected with only Sport6 vector without inserts; type: cell-based
[4] = 0-10 min post-injection of formalin
[5] = 10-60 min post-injection of formalin
[6] = 60 mg/kg, up to 60 min post-injection
[7] = S-ALG 517 60, 90 mg/kg, R-ALG 517 60, 90, 120 mg/kg, propranolol 10, 30, 60 mg/kg

Molecule: CC(C)NC[C@@H](O)COc1cccc2ccccc12 [R-propranolol]
- half-maximal analgesic dose (ED50), Early Phase (formalin-induced pain; [4]): not calculable
- half-maximal analgesic dose (ED50), Late Phase (formalin-induced pain; [5]): not calculable

Molecule: CC(C)NCC(O)COc1cccc2ccccc12 (centres unmarked) [S-Propranolol]
- half-maximal analgesic dose (ED50), Early Phase (formalin-induced pain; [4]): 35 mg/kg
- half-maximal analgesic dose (ED50), Late Phase (formalin-induced pain; [5]): 25.46 mg/kg

Molecule: Cc1ccc(Cl)c(OC[C@H](O)CNC(C)(C)C)c1 [R-ALG 517, R-tert-butyl[3-(2-chloro-5-methylphenoxy)-2-hydroxypropyl]amine]
- late phase, C-fiber mediated responses (paw licking) (hind paw formalin test; 10 mg/kg): reduced
- early, A-delta mediated phase responses (paw licking) (hind paw formalin test; early/acute phase, first 5 min): not altered
- ED50 (formalin-induced pain; 0-10 min post-injection of formalin, read-out: half-maximal analgesic dose (ED50), Early Phase): 46 mg/kg
- ED50 (formalin-induced pain; 10-60 min post-injection of formalin, read-out: half-maximal analgesic dose (ED50), Late Phase): 26.6 mg/kg
- thermal thresholds on the radiant heat test (thermal thresholds): increased thermal thresholds
- mechanical thresholds on the von Frey test (mechanical thresholds): no effect
- reversal of thermal hyperalgesia ([1]; 10 mg/kg): transient reversal
- reversal of mechanical hyperalgesia ([1]; 30 mg/kg): transient reversal
- reversal of thermal hyperalgesia ([1]; 30 mg/kg): transient reversal
- reversal of mechanical hyperalgesia [1, 6]: complete and sustained
- reversal of thermal hyperalgesia [1, 6]: complete and sustained
- reversal of mechanical allodynia evoked by spared nerve injury [2]: reversed
- ataxia / sedation on rotarod over the doses tested (in words) (rotarod performance; mouse, in vivo): does not produce significant ataxia
- ED50 at 60 min (in vivo): 166 mg/kg

Molecule: Cc1ccc(OCC(O)C(C)NC(C)C)c2c1CCC2 (centres unmarked) [ICI118,551, 3-(isopropylamino)-1-[(7-methyl-4-indanyl)oxy]butan-2-ol]
- blockade of morphine stimulation of cAMP (ADRB3; antagonist 300 nM): no blockade
- blockade of morphine stimulation of cAMP (ADRB1; antagonist 300 nM): partial blockade

Molecule: Cc1ccc(Cl)c(OC[C@@H](O)CNC(C)(C)C)c1 [S-ALG 517, S-tert-butyl[3-(2-chloro-5-methylphenoxy)-2-hydroxypropyl]amine]
- responses to the hind paw formalin test (hind paw formalin test; 3 mg/kg): without effect
- responses to the hind paw formalin test (hind paw formalin test; 10 mg/kg): without effect
- half-maximal analgesic dose (ED50), Early Phase (formalin-induced pain; [4]): not calculable
- half-maximal analgesic dose (ED50), Late Phase (formalin-induced pain; [5]): not calculable
- ataxia on the rotarod test (in words) (rotarod performance): only slight and possibly not even significant ataxia
- ED50 for maximal ataxia (rotarod performance): 74 mg/kg
- ataxia / sedation on rotarod over the doses tested (in words) (rotarod performance; [7]): produce sedation at much lower doses

Molecule: dynorphin A
- agonist stimulation of cAMP production (ADRB2): showed agonistic properties

Molecule: CC(C)NCC(O)COc1cccc2ccccc12 (centres unmarked) [propranolol]
- late phase, C-fiber mediated responses (paw licking) (hind paw formalin test; 10 mg/kg): reduced
- half-maximal analgesic dose (ED50), Early Phase (formalin-induced pain; 0-10 min post-injection of formalin, listed as racemic propranolol): 33 mg/kg
- half-maximal analgesic dose (ED50), Late Phase (formalin-induced pain; 10-60 min post-injection of formalin, listed as racemic propranolol): 21.3 mg/kg
- ataxia on the rotarod test (in words) (rotarod performance): fall off the rotarod very rapidly
- ED50 for maximal ataxia (rotarod performance): 4.76 mg/kg
- ataxia / sedation on rotarod over the doses tested (in words) (rotarod performance; [7]): produce sedation at much lower doses

Molecule: CN1CC[C@]23c4c5ccc(O)c4O[C@H]2[C@@H](O)C=C[C@H]3[C@H]1C5 [morphine]
- ADRB2 agonist potency in comparison with other agonists (in words) (ADRB2): most potent ADRB2 agonist
- agonist potency at ADRB2 as compared to ADRB1 and ADRB3 (ADRB2): 500-1000 times
- agonist stimulation of cAMP production (ADRB2): stimulated cAMP production; also recorded: dose-dependent increases
- intrinsic activity at ADRB2 as compared to ADRB1 and ADRB3 (ADRB2): about 10 times
- intracellular cAMP accumulation (ADRB3): dose-dependent increases
- cAMP response [3]: did not evoke responses
- intracellular cAMP accumulation (ADRB1): dose-dependent increases
